Measured values from PubChem BioAssay (NCI).
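Five compound concentrations were applied to cells in 96-well plates for 48 hours; endpoints were derived by simple linear interpolation of the resulting dose-response curve. The concentration for full growth arrest is given as TGI.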

How the values were obtained:
Experiment in all cases: inhibition of tumour cell growth, NCI panel, 48 h
[1] = system: COLO 205 colon
[2] = system: HCT-15 colon
[3] = system: ACHN renal
[4] = system: SW-620 colon
[5] = system: TK-10 renal
[6] = system: RPMI-8226 leukemia
[7] = system: SK-MEL-2 melanoma
[8] = system: SNB-75 CNS
[9] = system: SNB-19 CNS
[10] = system: SK-MEL-5 melanoma
[11] = system: PC-3 prostate
[12] = system: NCI-H23 lung
[13] = system: OVCAR-4 ovarian
[14] = system: OVCAR-5 ovarian
[15] = system: NCI-H522 lung
[16] = system: HOP-62 NSCLC
[17] = system: A498 renal
[18] = system: NCI-H226 lung
[19] = system: BT-549 breast
[20] = system: OVCAR-3 ovarian
[21] = system: 786-0 renal
[22] = system: SK-OV-3 ovarian
[23] = system: CCRF-CEM leukemia
[24] = system: HCC-2998 colon
[25] = system: HL-60(TB) leukemia
[26] = system: HS 578T breast
[27] = system: MDA-N
[28] = system: A549 NSCLC
[29] = system: T-47D breast
[30] = system: NCI/ADR-RES ovarian
[31] = system: MALME-3M melanoma
[32] = system: K-562 leukemia
[33] = system: NCI-H460 lung
[34] = system: M14 melanoma
[35] = system: MDA-MB-435
[36] = system: KM12 colon
[37] = system: UACC-62 melanoma
[38] = system: U251 CNS
[39] = system: UACC-257 melanoma
[40] = system: MOLT-4 leukemia
[41] = system: MDA-MB-231 breast
[42] = system: SF-539 CNS
[43] = system: HT29 colon
[44] = system: SN12C renal
[45] = system: EKVX NSCLC
[46] = system: SK-MEL-28 melanoma
[47] = system: LOX IMVI melanoma
[48] = system: SF-268 CNS
[49] = system: SF-295 CNS
[50] = system: DU-145 prostate
[51] = system: OVCAR-8 ovarian
[52] = system: IGROV1 ovarian
[53] = system: RXF 393 renal
[54] = system: HCT-116 colon
[55] = system: CAKI-1 renal
[56] = system: HOP-92 NSCLC
[57] = system: MCF7 breast
[58] = system: UO-31 renal

Measured: TGI

Cc1cc(S(=O)(=O)Nc2n[nH]c(N)n2)c(Cl)cc1Cl
not listed: [56] | [57] | [58]
> 10 µM: all other assays above

O=C(O)c1c(Br)c(Br)c(Br)c(Br)c1C1c2ccc(O)cc2Oc2cc(O)ccc21
30.1 µM: [25]
not listed: [12] | [23]
> 100 µM: all other assays above

CC(=O)NC1=NC(=O)/C(=C/c2ccc(/C=C3/C(=O)N=C(NC(C)=O)N3C)cc2)N1C
not listed: [6] | [11] | [15] | [23] | [26] | [31] | [32]
> 100 µM: all other assays above

CC(C)(NC(=O)OCc1ccccc1)C(=O)OC(=O)C(C)(C)NC(=O)OCc1ccccc1
not listed: [5] | [24] | [25] | [39] | [48] | [50] | [53]
> 100 µM: all other assays above
